The source of these data is patent US9993478B2, “1-pyrazolyl-3-(4-((2-anilinopyrimidin-4-yl) oxy) napththalen-1-yl) ureas as P38 MAP knase inhibitors” (Respivert Ltd., priority 2011, dated 2018).

For data set [1], the system named is A/J mice. Kind of data set: Cigarette smoke model. The note with it: tobacco smoke. In kind it is in vivo. How it is done:
A/J mice (males, 5 weeks old) were exposed to cigarette smoke (4% cigarette smoke, diluted with air) for 30 min/day for 11 days using a Tobacco Smoke Inhalation Experiment System for small animals (Model SIS-CS; Sibata Scientific Technology, Tokyo, Japan). Test substances were administered intra-nasally (35 μL of solution in 50% DMSO/PBS) once daily for 3 days after the final cigarette smoke exposure. At 12 hr after the last dosing, each of the animals was anesthetized, the trachea cannulated and bronchoalveolar lavage fluid (BALF) was collected. The numbers of alveolar macrophages and neutrophils were determined by FACS analysis (EPICS® ALTRA II, Beckman Coulter, Inc., Fullerton, Calif., USA) using anti-mouse MOMA2 antibody (macrophage) or anti-mouse 7/4 antibody (neutrophil). BALF was centrifuged and the supernatant was collected. The level of keratinocyte chemoattractant (KC; CXCL1) in BALF was quantitated using a Quentikine® mouse KC ELISA kit (R&D systems, Inc., Minneapolis, Minn., USA).

Data set [2] deals with d-U937 cells. Kind of data set: Cell viability: MTT assay. In kind it is cell-based, human. The note with it: 1 μg/mL. In short, it runs like this:
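Differentiated U937 cells exposed to compound at 1 or 10 μg/mL final, either 4 h in 5% FCS RPMI1640 or 24 h in 10% FCS RPMI1640. After medium replacement, MTT added 1 h, formazan dissolved in DMSO, A550 read. % viability loss vs 0.5% DMSO vehicle; apparent viability gain shown as negative %.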

On to `Cc1ccc(-n2nc(C(C)(C)C)cc2NC(=O)Nc2ccc(Oc3ccnc(Nc4ccccc4)n3)c3ccccc23)cc1` [Example 1, 1-(3-(tert-Butyl)-1-(p-tolyl)-1H-pyrazol-5-yl)-3-(4-(2-(phenylamino)pyrimidin-4-yloxy)naphthalen-1-yl)urea], for which the “Macrophage numbers in BALF % inhibition” value amounted to 11% in data set [1] (0.32 μg/mL intra-nasal), 28% in data set [1] (1.6 μg/mL intra-nasal), 43% in data set [1] (8.0 μg/mL intra-nasal) and 64% in data set [1] (40 μg/mL intra-nasal). The “Neutrophil numbers in BALF % inhibition” value came to 12% in data set [1] (0.32 μg/mL intra-nasal), 29% in data set [1] (1.6 μg/mL intra-nasal), 41% in data set [1] (8.0 μg/mL intra-nasal) and 52% in data set [1] (40 μg/mL intra-nasal). The “MTT Assay Cell viability at time point in d-U937 Cells 4 h” value in data set [2] is “−ve (−ve and +ve indicate the value is below and above respectively, the no significant effect threshold defined as 30% inhibition at 1 μg/mL at the time point indicated)”. The “MTT Assay Cell viability at time point in d-U937 Cells 24 h” value in data set [2] was “−ve (−ve and +ve indicate the value is below and above respectively, the no significant effect threshold defined as 30% inhibition at 1 μg/mL at the time point indicated)”.

For the compound `Cc1ccc(-n2nc(C(C)(C)C)cc2NC(=O)Nc2ccc(Oc3ccnc(Nc4ccc(O)cc4Cl)n3)c3ccccc23)cc1` [Example 31, 1-(3-(tert-butyl)-1-(p-tolyl)-1H-pyrazol-5-yl)-3-(4-((2-((2-chloro-4-hydroxyphenyl)amino)pyrimidin-4-yl)oxy)naphthalen-1-yl)urea], in data set [2], the “MTT Assay Cell viability at time point in d-U937 Cells 4 h” value is “−ve (−ve and +ve indicate the value is below and above respectively, the no significant effect threshold defined as 30% inhibition at 1 μg/mL at the time point indicated)”; the “MTT Assay Cell viability at time point in d-U937 Cells 24 h” value was “−ve (−ve and +ve indicate the value is below and above respectively, the no significant effect threshold defined as 30% inhibition at 1 μg/mL at the time point indicated)”.

On to `COc1ccc(-n2nc(C(C)(C)C)cc2NC(=O)Nc2ccc(Oc3ccnc(Nc4ccccc4)n3)c3ccccc23)cc1` [Example 7, 1-(3-(tert-butyl)-1-(4-methoxyphenyl)-1H-pyrazol-5-yl)-3-(4-((2-(phenylamino)pyrimidin-4-yl)oxy)naphthalen-1-yl)urea], for which, in data set [2], the “MTT Assay Cell viability at time point in d-U937 Cells 4 h” value was “−ve (−ve and +ve indicate the value is below and above respectively, the no significant effect threshold defined as 30% inhibition at 1 μg/mL at the time point indicated)”; the “MTT Assay Cell viability at time point in d-U937 Cells 24 h” value is “−ve (−ve and +ve indicate the value is below and above respectively, the no significant effect threshold defined as 30% inhibition at 1 μg/mL at the time point indicated)”.

For `Cc1ccc(-n2nc(C(C)(C)C)cc2NC(=O)Nc2ccc(Oc3ccnc(Nc4cccc(Cl)c4)n3)c3ccccc23)cc1` [Example 13, 1-(3-(tert-butyl)-1-(p-tolyl)-1H-pyrazol-5-yl)-3-(4-((2-((3-chlorophenyl)amino)pyrimidin-4-yl)oxy)naphthalen-1-yl)urea], in data set [2], the “MTT Assay Cell viability at time point in d-U937 Cells 4 h” value is “−ve (−ve and +ve indicate the value is below and above respectively, the no significant effect threshold defined as 30% inhibition at 1 μg/mL at the time point indicated)”; the “MTT Assay Cell viability at time point in d-U937 Cells 24 h” value was “−ve (−ve and +ve indicate the value is below and above respectively, the no significant effect threshold defined as 30% inhibition at 1 μg/mL at the time point indicated)”.

Consider `Cc1ccc(-n2nc(C(C)(C)C)cc2NC(=O)Nc2ccc(Oc3ccnc(Nc4ccc(O)cc4O)n3)c3ccccc23)cc1` [Example 32, 1-(3-(tert-butyl)-1-(p-tolyl)-1H-pyrazol-5-yl)-3-(4-((2-((2,4-dihydroxyphenyl)amino)pyrimidin-4-yl)oxy)naphthalen-1-yl)urea], for which, in data set [2], the “MTT Assay Cell viability at time point in d-U937 Cells 4 h” value is “−ve (−ve and +ve indicate the value is below and above respectively, the no significant effect threshold defined as 30% inhibition at 1 μg/mL at the time point indicated)”; the “MTT Assay Cell viability at time point in d-U937 Cells 24 h” value was “−ve (−ve and +ve indicate the value is below and above respectively, the no significant effect threshold defined as 30% inhibition at 1 μg/mL at the time point indicated)”.
